In patent US11945806B2, “Stabilization of amyloidogenic immunoglobulin light chains” (The Scripps Research Institute, priority 2019, dated 2024):

The compounds below were run against WIL-FL (Homo sapiens, UniProt P01721) (assay: Unlabeled LC Protease Sensitivity Assay (proteinase K)). Conditions: small molecule 10 μM, WIL-FL 5 μM, proteinase K 50 nM, 2 hours at 37° C.
Assay type: biochemical
Experimental: Unlabeled LC Protease Sensitivity Assay. WIL-FL (5 μM) in phosphate-buffered saline (PBS, pH 7.4)+0.02% Pluronic F-127 was incubated with proteinase K (50 nM) with small molecule (10 μM) in 1% DMSO vehicle, or vehicle alone. After 2 hours at 37° C., reactions were quenched with 2 mM phenylmethyl sulfonyl fluoride in methanol and centrifuged at 14,000 rpm for 2 minutes. Remaining WIL-FL was quantified by injecting 10 μL of the supernatant into a Waters Acquity H-Class Bio-UPLC (ultra performance liquid chromatography) instrument equipped with a BEH200 analytical size-exclusion column (1.7 μm, 4.6×150 mm) under isocratic conditions (0.2 mL/min, PBS+1 mM EDTA, 2400 psi backpressure, 15 min), monitoring absorbance at 280 nm. Activity of each compound is given as fold protection from protease=(A_compound−A_vehicle)/(A_no_protease−A_vehicle), where each “A” corresponds to peak integration of the respective treatment.
In the case of `CC(C)CC1NC(=O)N(CC(=O)Nc2ccc(C(F)(F)F)cc2)C1=O` (single isomer, unassigned) [Compound 22], the “Protection (fold protection of LC from protease)” value was “A (A < 0.3))”. In the case of `CC(C)CC1NC(=O)N(CC(=O)Nc2ccc(C(F)(F)F)cc2)C1=O` (single isomer, unassigned) [Compound 23], the “Protection (fold protection of LC from protease)” value was “A (A < 0.3))”. For `CCN(CC)c1ccc2c(C(F)(F)F)cc(=O)oc2c1` [Compound 24], the “Protection (fold protection of LC from protease)” value was “A (A < 0.3))”. For `CCN(CC)c1ccc2c(C)cc(=O)[nH]c2c1` [Compound 25, 7-(diethylamino)-4-methylquinolin-2(1H)-one], the “Protection (fold protection of LC from protease)” value was “A (A < 0.3))”. `CCN(CC)c1ccc2cc(C#N)c(=N)oc2c1` [Compound 26, 7-(diethylamino)-2-imino-2H-chromene-3-carbonitrile] was tested, and the “Protection (fold protection of LC from protease)” value was “A (A < 0.3))”. In the case of `CCN(CC)c1ccc2c(O)cc(=O)oc2c1` [Compound 27, 7-(diethylamino)-4-hydroxy-2H-chromen-2-one], the “Protection (fold protection of LC from protease)” value was “A (A < 0.3))”. With `Cc1cc(=O)oc2cc(NCc3ccccc3)ccc12` [Compound 28, 7-(benzylamino)-4-methyl-2H-chromen-2-one] the “Protection (fold protection of LC from protease)” value was “A (A < 0.3))”. With `Cc1cc(=O)oc2cc(NCc3ccoc3)ccc12` [Compound 29, 7-((furan-3-ylmethyl)amino)-4-methyl-2H-chromen-2-one] the “Protection (fold protection of LC from protease)” value was “A (A < 0.3))”. `Cc1cc(=O)oc2cc(NCCCc3ccccc3)ccc12` [Compound 30, 4-methyl-7-((3-phenylpropyl)amino)-2H-chromen-2-one] was tested, and the “Protection (fold protection of LC from protease)” value was “A (A < 0.3))”. In the case of `CCN(CCCc1ccccc1)c1ccc2c(C)cc(=O)oc2c1` [Compound 31, 7-(ethyl(3-phenylpropyl)amino)-4-methyl-2H-chromen-2-one], the “Protection (fold protection of LC from protease)” value was “A (A < 0.3))”. In the case of `CCC(C)Oc1ccc2c(C)cc(=O)oc2c1` (stereo not drawn) [Compound 32, 7-(sec-butoxy)-4-methyl-2H-chromen-2-one], the “Protection (fold protection of LC from protease)” value was “A (A < 0.3))”. For `CCCOc1ccc2c(C)cc(=O)oc2c1` [Compound 33, 4-methyl-7-propoxy-2H-chromen-2-one], the “Protection (fold protection of LC from protease)” value was “A (A < 0.3))”. With `Cc1cc(=O)oc2cc(OCCN)ccc12` [Compound 34, 7-(2-aminoethoxy)-4-methyl-2H-chromen-2-one] the “Protection (fold protection of LC from protease)” value was “A (A < 0.3))”. In the case of `CCN(Cc1ccccc1)c1ccc2c(C)cc(=O)oc2c1` [Compound 35, 7-(benzyl(ethyl)amino)-4-methyl-2H-chromen-2-one], the “Protection (fold protection of LC from protease)” value was “A (A < 0.3))”. With `Cc1cc(=O)oc2cc(N3CCCC3)ccc12` [Compound 36, 4-methyl-7-(pyrrolidin-1-yl)-2H-chromen-2-one] the “Protection (fold protection of LC from protease)” value was “A (A < 0.3))”. For `CCN(CCc1ccccc1)c1ccc2c(C)cc(=O)oc2c1` [Compound 37, 7-(ethyl(phenethyl)amino)-4-methyl-2H-chromen-2-one], the “Protection (fold protection of LC from protease)” value was “A (A < 0.3))”. With `Cc1cc(=O)oc2cc(NC(C)c3ccccc3)ccc12` (stereo not drawn) [Compound 39, 4-methyl-7-((1-phenylethyl)amino)-2H-chromen-2-one] the “Protection (fold protection of LC from protease)” value was “A (A < 0.3))”. `Cc1cc(=O)oc2cc(NCCc3ccccc3)ccc12` [Compound 40, 4-methyl-7-(phenethylamino)-2H-chromen-2-one] was tested, and the “Protection (fold protection of LC from protease)” value was “A (A < 0.3))”. For `CCC(Oc1ccc2c(C)cc(=O)oc2c1)c1ccccc1` (stereo not drawn) [Compound 41, 4-methyl-7-(1-phenylpropoxy)-2H-chromen-2-one], the “Protection (fold protection of LC from protease)” value was “A (A < 0.3))”. In the case of `Cc1cc(=O)oc2cc(OC(c3ccccc3)c3ccccc3)ccc12` [Compound 42, 7-(benzhydryloxy)-4-methyl-2H-chromen-2-one], the “Protection (fold protection of LC from protease)” value was “A (A < 0.3))”. With `Cc1cc(=O)oc2cc(OCC(C)c3ccccc3)ccc12` (stereo not drawn) [Compound 43, 4-methyl-7-(2-phenylpropoxy)-2H-chromen-2-one] the “Protection (fold protection of LC from protease)” value was “B (3 ≤ B < 0.6)”. `Cc1cc(=O)oc2cc(OC(C)c3ccc(F)cc3)ccc12` (stereo not drawn) [Compound 44, 7-(1-(4-fluorophenyl)ethoxy)-4-methyl-2H-chromen-2-one] was tested, and the “Protection (fold protection of LC from protease)” value was “A (A < 0.3))”. For `Cc1ccccc1C(C)Oc1ccc2c(C)cc(=O)oc2c1` (stereo not drawn) [Compound 45, 4-methyl-7-(1-(o-tolyl)ethoxy)-2H-chromen-2-one], the “Protection (fold protection of LC from protease)” value was “A (A < 0.3))”. For `Cc1cc(=O)oc2cc(OCCC(C)c3ccccc3)ccc12` (stereo not drawn) [Compound 46, 4-methyl-7-(3-phenylbutoxy)-2H-chromen-2-one], the “Protection (fold protection of LC from protease)” value was “A (A < 0.3))”. For `Cc1cc(=O)oc2cc(OC(C)Cc3ccccc3)ccc12` (stereo not drawn) [Compound 47, 4-methyl-7-((1-phenylpropan-2-yl)oxy)-2H-chromen-2-one], the “Protection (fold protection of LC from protease)” value was “A (A < 0.3))”. In the case of `Cc1cc(=O)oc2cc(N3CCCCC3)ccc12` [Compound 48, 4-methyl-7-(piperidin-1-yl)-2H-chromen-2-one], the “Protection (fold protection of LC from protease)” value was “A (A < 0.3))”. With `Cc1cc(=O)oc2cc(OC(C)c3ccccc3F)ccc12` (stereo not drawn) [Compound 49, 7-(1-(2-fluorophenyl)ethoxy)-4-methyl-2H-chromen-2-one] the “Protection (fold protection of LC from protease)” value was “A (A < 0.3))”. With `Cc1cc(=O)oc2cc(OC(C)c3c(F)cccc3F)ccc12` (stereo not drawn) [Compound 51, 7-(1-(2,6-difluorophenyl)ethoxy)-4-methyl-2H-chromen-2-one] the “Protection (fold protection of LC from protease)” value was “A (A < 0.3))”. In the case of `CCN(CC)c1ccc2c(C)cc(=O)n(C)c2c1` [Compound 52, 7-(diethylamino)-1,4-dimethylquinolin-2(1H)-one], the “Protection (fold protection of LC from protease)” value was “A (A < 0.3))”. In the case of `CCN(CC)c1ccc2c(C)c(CCO)c(=O)oc2c1` [Compound 53, 7-(diethylamino)-3-(2-hydroxyethyl)-4-methyl-2H-chromen-2-one], the “Protection (fold protection of LC from protease)” value was “A (A < 0.3))”. With `CCN(CC)c1ccc2c(C)c(CC(=O)O)c(=O)oc2c1` [Compound 54, 2-(7-(diethylamino)-4-methyl-2-oxo-2H-chromen-3-yl)acetic acid] the “Protection (fold protection of LC from protease)” value was “A (A < 0.3))”. For `CCN(CC)c1ccc2c(C)c(CC(=O)NCCc3ccccc3)c(=O)oc2c1` [Compound 55, 2-(7-(diethylamino)-4-methyl-2-oxo-2H-chromen-3-yl)-N-phenethylacetamide], the “Protection (fold protection of LC from protease)” value was “A (A < 0.3))”. With `CCN(CC)c1ccc2c(C)c(CC(=O)NCCCc3ccccc3)c(=O)oc2c1` [Compound 56, 2-(7-(diethylamino)-4-methyl-2-oxo-2H-chromen-3-yl)-N-(3-phenylpropyl)acetamide] the “Protection (fold protection of LC from protease)” value was “A (A < 0.3))”. With `CCN(CC)c1ccc2c(C)c(CC(=O)NCCCCc3ccccc3)c(=O)oc2c1` [Compound 57, 2-(7-(diethylamino)-4-methyl-2-oxo-2H-chromen-3-yl)-N-(4-phenylbutyl)acetamide] the “Protection (fold protection of LC from protease)” value was “A (A < 0.3))”. In the case of `CCN(CC)c1ccc2c(C)c(CC(=O)NCCN(C)C)c(=O)oc2c1` [Compound 58, 2-(7-(diethylamino)-4-methyl-2-oxo-2H-chromen-3-yl)-N-(2-(dimethylamino)ethyl)acetamide], the “Protection (fold protection of LC from protease)” value was “A (A < 0.3))”. In the case of `CCN(CC)c1ccc2c(C)c(CC(=O)NCCCN(C)C)c(=O)oc2c1` [Compound 59, 2-(7-(diethylamino)-4-methyl-2-oxo-2H-chromen-3-yl)-N-(3-(dimethylamino)propyl)acetamide], the “Protection (fold protection of LC from protease)” value was “A (A < 0.3))”. `CCN(CC)c1ccc2c(C)c(CC(=O)NC)c(=O)oc2c1` [Compound 60, 2-(7-(diethylamino)-4-methyl-2-oxo-2H-chromen-3-yl)-N-methylacetamide] was tested, and the “Protection (fold protection of LC from protease)” value was “A (A < 0.3))”. For `CCN(CC)c1ccc2c(C)c(CC(=O)N(C)C)c(=O)oc2c1` [Compound 61, 2-(7-(diethylamino)-4-methyl-2-oxo-2H-chromen-3-yl)-N,N-dimethylacetamide], the “Protection (fold protection of LC from protease)” value was “A (A < 0.3))”. In the case of `CCN(CC)c1ccc2c(C)c(CCC(=O)O)c(=O)oc2c1` [Compound 62, 3-(7-(diethylamino)-4-methyl-2-oxo-2H-chromen-3-yl)propanoic acid], the “Protection (fold protection of LC from protease)” value was “A (A < 0.3))”. With `CCN(CC)c1ccc2c(C)c(CCC(=O)NCCc3ccccc3)c(=O)oc2c1` [Compound 64, 3-(7-(diethylamino)-4-methyl-2-oxo-2H-chromen-3-yl)-N-phenethylpropanamide] the “Protection (fold protection of LC from protease)” value was “A (A < 0.3))”. `CCN(CC)c1ccc2c(C)c(CCC(=O)NC)c(=O)oc2c1` [Compound 66, 3-(7-(diethylamino)-4-methyl-2-oxo-2H-chromen-3-yl)-N-methylpropanamide] was tested, and the “Protection (fold protection of LC from protease)” value was “A (A < 0.3))”. For `CCN(CC)c1ccc2c(C)c(CCC(=O)NCCCN(C)C)c(=O)oc2c1` [Compound 68], the “Protection (fold protection of LC from protease)” value was “A (A < 0.3))”. For `CCN(CC)c1ccc2c(C)c(CCNC(=O)OC(C)(C)C)c(=O)oc2c1` [Compound 69, Tert-butyl (2-(7-(diethylamino)-4-methyl-2-oxo-2H-chromen-3-yl)ethyl)carbamate], the “Protection (fold protection of LC from protease)” value was “A (A < 0.3))”. For `CCN(CC)c1ccc2c(C)c(CCNC(=O)CCc3ccccc3)c(=O)oc2c1` [Compound 70, N-(2-(7-(diethylamino)-4-methyl-2-oxo-2H-chromen-3-yl)ethyl)-3-phenylpropanamide], the “Protection (fold protection of LC from protease)” value was “A (A < 0.3))”. In the case of `CCN(CC)c1ccc2c(C)c(CCC(=O)NCCc3ccccc3F)c(=O)oc2c1` [Compound 71], the “Protection (fold protection of LC from protease)” value was “A (A < 0.3))”.
